In US20200093815A1, “COMBINATIONS OF EZH2 INHIBITORS WITH FURTHER AGENTS FOR USE IN THE TREATMENT OF CANCER” (Constellation Pharmaceuticals, Inc., priority 2015, published 2020):

Experiments:
H3K27me3 [1] = assay: MSD ELISA of global H3K27me3 and total H3 in OPM-2 tumors (Panobinostat study); type: in vivo, BALB/C nude mouse; conditions: Inhibitor 1 200 mpk SC BID vs vehicle control, end of study
Procedure: FIG. 11A is an in vivo combination experiment using an OPM-2 subcutaneous xenograft BALB/C nude mouse model (n=8 per cohort). The experiment was carried out to assess the impact of Inhibitor 1 and Panobinostat in combination. Inhibitor 1 was dosed twice daily at 200 mg/kg administered subcutaneously (200 mpk SC BID) and Panobinostat was dosed intraperitoneally once a day. Panobinostat was dosed at 5 mg/kg QD (DO-D4); 2.5 mg/kg QD (D7-D9, D13, D17 and D19), the dose and frequency of dosing was reduced to manage the toxicity effects. Tumor volume was plotted as a function of time. Data are represented as the mean tumor volume per cohort and time point±s.d. Bodyweight was assessed for vehicle and compound-treated animals for the experiment described in FIG. 11B. Data are represented as described in FIG. 11C. Vehicle and Inhibitor 1-treated tumors were collected at the end of the study and analyzed for global H3K27me3 and total H3 levels using an MSD ELISA assay. […] Data are represented as the mean of data from 4 subjects±s.e.m.

[2] = tested on: OPM-2 multiple myeloma cells; assay: Cell Titre Glo viability, EZH2 inhibitor and lenalidomide matrix, OPM-2; type: cell-based; conditions: Inhibitor 1 alone, FIG. 3E
Procedure: (§1) For all these experiments estimating the combinatorial response between EZH2 inhibitor and lenalidomide, cells were pre-treated with 8 different doses of EZH2 inhibitor for 8 days (Cells were split after 4 days and plated onto EZH2 inhibitor containing plates for an additional 4 days). After pre-treatment, cells were split and seeded onto EZH2 inhibitor and lenaldomide containing plates (compounds plated in a matrix format). Viability was assessed using Cell Titre Glo after 4 days of co-treatment.
(§2) Data are represented as the average percentage of cells in drug-treated wells as compared to DMSO-treated wells from independent duplicate experiments (i and ii). To assess synergy, the data was analyzed in a number of ways including calculation of combination index, bliss independence score and Loewe excess score. […] Data are represented as the mean of independent duplicate experiments ±s.d.

[3] = tested on: KMS-27 multiple myeloma cells; assay: Cell Titre Glo viability, EZH2 inhibitor and lenalidomide matrix, KMS-27; type: cell-based; conditions: Inhibitor 1 alone, FIG. 4E
Procedure: as §1, §2

H3K27me3 [4] = assay: MSD ELISA of global H3K27me3 and total H3 in OPM-2 tumors (lenalidomide study); type: in vivo, BALB/C nude mouse; conditions: end of study, total H3 as normalizer; Inhibitor 1 vs vehicle control, combination vs lenalidomide alone; FIG. 6C
Procedure: (§3) The experiment was carried out to assess the impact of Inhibitor 1 and lenalidomide in combination. Inhibitor 1 was dosed twice daily at 200 mg/kg, administered subcutaneously (200 mpk SC BID) and lenalidomide was dosed intraperitoneally once a day at 25 mg/kg (25 mpk IP QD) for the course of the entire study. Tumor volume was plotted as a function of time. Data are represented as the mean tumor volume per cohort and time point ±s.d. Bodyweight was assessed for vehicle and compound-treated animals for the experiment described in FIG. 6A. […] Data are represented as described in FIG. 6A. Vehicle and compound-treated tumors were collected at the end of the study and analyzed for global H3K27me3 and total H3 levels using an MSD ELISA assay.
Total H3 was used as a normalizer. Data are represented as the mean of data from 4 subjects±s.e.m.

[5] = tested on: OPM-2 subcutaneous xenograft; assay: OPM-2 subcutaneous xenograft combination experiment (lenalidomide, dexamethasone); type: in vivo, BALB/C nude mouse
Procedure: as §3
Tumor volume was plotted as a function of time.

[6] = tested on: 19 multiple myeloma cell lines; assay: Combination with standard of care agents in multiple myeloma cell lines; type: cell-based; conditions: FIG. 16
Description: FIG. 16 summarizes the synergies observed between various standard of care agents as described above in 19 multiple myeloma cell lines.

KARPAS-422 xenograft = conditions: mouse, in vivo, po, 100 mg/kg
Procedure: Tumor volume measurements were recorded at indicated days post initial dose.* CHOP: Cyclophosphamide, 40 mg/kg, i.v.; doxorubicin, 3.3 mg/kg, i.v.; vincristine, 0.5 mg/kg, i.v.; and prednisone, 0.2 mg/kg, every day for 5 days, p.o.

SMILES	levels of H3K27me3 in tumors (H3K27me3 [1])	effect of single agent on cell viability [2]	effect of single agent on cell viability [3]	levels of H3K27me3 in tumors (H3K27me3 [4])	single agent activity in xenograft model ([5]; Inhibitor 1 200 mpk SC BID alone)	effect on in vivo anti-tumor activity of dexamethasone ([5]; OPM-2 xenograft, FIG. 13)	combinatorial activity with standard of care agents [6]	adverse effects / toxicity (KARPAS-422 xenograft)
CCS(=O)(=O)N1CCC([C@@H](C)n2c(C)c(C(=O)NCc3c(OC)cc(C)[nH]c3=O)c3ccccc32)CC1 [Inhibitor 1]	marked reduction	dose-dependent effect	dose-dependent effect	marked reduction	little single agent activity	increases	broadly combines with various different standard of care agents	
COc1cc(C)[nH]c(=O)c1CNC(=O)c1c(C)n(C(C)C2CCN(CC(F)(F)F)CC2)c2ccccc12 (stereo not drawn) [Inhibitor 3]								did not show any adverse effects and did not add to CHOP toxicity
Nc1cccc2c1CN(C1CCC(=O)NC1=O)C2=O (stereo not drawn) [Lenalidomide, lenalidomide, reference compound]				did not affect				
